Marks after values point to notes of the source that are not given here.
Test system: delayed type hypersensitivity (DTH) reaction
Assay: Delayed type hypersensitivity (DTH) reaction in the mouse, OXA sensitization and ear challenge, ear thickness
Format: in vivo, Balb/c mice
Conditions: oral feeding from sensitization to Day 6, 100 = doubled ear thickness; for % Increase, 48h: increase in ear thickness 48 hours after OXA challenge
Text: The property of the compounds of the invention to stimulate immune responses are illustrated by their efficacy in a model in the mouse of the delayed type hypersensitivity (DTH) reaction.
Both male and female Balb/c mice obtained from Bomhotsgaard (Denmark) and Charlie Rivers (England), were used at the weight of 18-20 gram. 4-ethoxymethylene-2-phenyloxazolone (OXA) was purchased from BDH (England) and served as an antigen in this test.
The mice were sensitized, Day 0, by epicutaneous application of 150 ul absolute ethanol-acetone (3:1) solution containing 3% OXA on the shaved thorax and abdomen. Treatment with the compound under examination, DiNAC (as a positive control) or vehicle (phosphate buffer, pH 7.0) was initiated by oral feeding immediately after sensitization and contiuned once to Day 6. […] (Day 6) after the sensitization both ears of all mice were challenged on both sides by topical application of 20 ul 1% OXA dissolved in olive oil. Ear thickness was measured prior to and 24 or 48 hours after challenge using an Oditest spring calliper. Challenges and measurements were performed under light pentobarbital anaesthesia. The intensity of the DTH reactions was expressed according to the formula: Tt24/48-Tt0 um units, where t0 and t24/48 represent the ear thickness before and 24 or 48 hours after challenge, respectively, in individual test (T). The results were expressed as the mean+/-S.E.M. The level of significance between means of the groups was obtained by Student's two-tailed t-test. […] A figure of 100 thus indicates a doubled ear thickness.

SMILES | % Increase, 48h (0.03 »mol/kg) | % Increase, 48h | % Increase, 24h (increase in ear thickness 24 hours after OXA challenge, 0.03 »mol/kg)
CCCCCC(=O)N[C@@H](CSSC[C@H](NC(=O)CCCCC)C(=O)OC)C(=O)OC [Example 9, (R,R)-N,N'-dihexanoyl-3,3'-dithiobis(2-aminopropionic acid)dimethylester] | 51*** % | 45*** % | –
CCCCCCCC(=O)N[C@@H](CSSC[C@H](NC(=O)CCCCCCC)C(=O)OC)C(=O)OC [Example 10, (R,R)-N,N'-di(1-oxo-octyl)-3,3'-dithiobis-(2-aminopropionic acid)dimethylester] | 28** % | 20* % | –
CCCCCCCC(=O)N[C@@H](CSSC[C@H](NC(=O)CCCCCCC)C(=O)OCC)C(=O)OCC [Example 11, (R,R)-N,N'-di(1-oxo-octyl)-3,3'-dithiobis(2-aminopropionic acid)diethylester] | 0% | 0% | –
COC(=O)[C@H](CSSC[C@H](NC(=O)C(C)C)C(=O)OC)NC(=O)C(C)C [Example 14, (R,R)-N,N'-di(2-methylpropionyl)-3,3'-dithiobis(2-aminopropionic acid)dimethylester] | 17* % | 27*** % | –
CC(C)C(=O)N[C@@H](CSSC[C@H](NC(=O)C(C)C)C(=O)O)C(=O)O [Example 16, (R,R)-N,N'-di(2-methylpropionyl)-3,3'-dithiobis(2-aminopropionic acid)] | 27** % | 62*** % | –
CC(=O)N[C@@H](CSSC[C@H](NC(=O)C(C)(C)C)C(=O)O)C(=O)O [Example 20, (R,R)-N-Acetyl-N'-(2,2-dimethylpropionyl)-3,3'-dithiobis(2-aminopropionic acid)] | 14% | 17* % | –
CC(C)(C)C(=O)N[C@@H](CSSC[C@H](NC(=O)C(C)(C)C)C(=O)O)C(=O)O [Example 21, (R,R)-N,N'-di(2,2-dimethylpropionyl)-3,3'-dithiobis(2-aminopropionic acid)] | 26* % | 27* % | 14* %

Source: patent EP0463514B1, “3.3'-Dithiobis (propionic acids) and esters thereof” (priority 1990, dated 1992)
